Experimental data taken from patent US9089509B2, “Method of treatment of age-related macular degeneration” (YEDA RESEARCH AND DEVELOPMENT CO., LTD., priority 2006, dated 2015).

Legend:
[1] = test system: neural stem/progenitor cells (NPCs) co-cultured with microglia; test: Co-culture of GFP-expressing neural progenitor cells with treated microglia, neurogenesis (GFP+/βIII-T+ cells); format: cell-based, mouse
Method: Coronal sections (2 mm thick) of tissue containing the subventricular zone of the lateral ventricle were obtained from the brains of adult C57Bl/6J mice. The tissue was minced and then incubated for digestion at 37° C., 5% CO2 for 45 min in Earle's balanced salt solution containing 0.94 mg/ml papain (Worthington, Lakewood, N.J.) and 0.18 mg/ml of L-cysteine and EDTA. After centrifugation at 110×g for 15 min at room temperature, the tissue was mechanically dissociated by pipette trituration. Cells obtained from single-cell suspensions were plated (3500 cells/cm^2) in 75-cm^2 Falcon tissue-culture flasks (BD Biosciences, San Diego, Calif.), in neural stem/progenitor cell (NPC)-culturing medium [Dulbecco's modified Eagles's medium (DMEM)/F12 medium (Gibco/Invitrogen, Carlsbad, Calif.) containing 2 mM L-glutamine, 0.6% glucose, 9.6 μg/ml putrescine, 6.3 ng/ml progesterone, 5.2 ng/ml sodium selenite, 0.02 mg/ml insulin, 0.1 mg/ml transferrin, 2 μg/ml heparin (all from Sigma-Aldrich, Rehovot, Israel), fibroblast growth factor-2 (human recombinant, 20 ng/ml), and epidermal growth factor (human recombinant, 20 ng/ml; both from Peprotech, Rocky Hill, N.J.)]. Spheres were passaged every 4-6 days and replated as single cells. Green fluorescent protein (GFP)-expressing NPCs were obtained as previously described (Pluchino et al., 2003).
Brains from neonatal (P0-P1) C57Bl/6J mice were stripped of their meninges and minced with scissors under a dissecting microscope (Zeiss, Stemi DV4, Germany) in Leibovitz-15 medium (Biological Industries, Kibbutz Beit Ha-Emek, Israel). After trypsinization (0.5% trypsin, 10 min, 37° C./5% CO2), the tissue was triturated. The cell suspension was washed in culture medium for glial cells [DMEM supplemented with 10% fetal calf serum (FCS; Sigma-Aldrich, Rehovot), L-glutamine (1 mM), sodium pyruvate (1 mM), penicillin (100 U/ml), and streptomycin ([…])] and cultured at 37° C./5% CO2 in 75-cm^2 Falcon tissue-culture flasks (BD Biosciences) coated with poly-D-lysine (PDL) (10 mg/ml; Sigma-Aldrich, Rehovot) in borate buffer (2.37 g borax and 1.55 g boric acid dissolved in 500 ml sterile water, pH 8.4) for 1 h, then rinsed thoroughly with sterile, glass-distilled water. Half of the medium was changed after 6 h in culture and every 2nd day thereafter, starting on day 2, for a total culture time of 10-14 days. […]

[2] = test system: microglia; test: CD11c expression and morphology in primary culture of mouse microglia; format: cell-based; settings: microglia, 10 ng/ml (FIGS. 8A-8D)
Method: Brains from neonatal (P0-P1) C57Bl/6J mice were stripped of their meninges and minced with scissors under a dissecting microscope (Zeiss, Stemi DV4, Germany) in Leibovitz-15 medium (Biological Industries, Kibbutz Beit Ha-Emek, Israel). After trypsinization (0.5% trypsin, 10 min, 37° C./5% CO2), the tissue was triturated. The cell suspension was washed in culture medium for glial cells [DMEM supplemented with 10% fetal calf serum (FCS; Sigma-Aldrich, Rehovot), L-glutamine (1 mM), sodium pyruvate (1 mM), penicillin (100 U/ml), and streptomycin ([…])] and cultured at 37° C./5% CO2 in 75-cm^2 Falcon tissue-culture flasks (BD Biosciences) coated with poly-D-lysine (PDL) (10 mg/ml; Sigma-Aldrich, Rehovot) in borate buffer (2.37 g borax and 1.55 g boric acid dissolved in 500 ml sterile water, pH 8.4) for 1 h, then rinsed thoroughly with sterile, glass-distilled water. Half of the medium was changed after 6 h in culture and every 2nd day thereafter, starting on day 2, for a total culture time of 10-14 days. Microglia were shaken off the primary mixed brain glial cell cultures (150 rpm, 37° C., 6 h) with maximum yields between days 10 and 14, seeded (10^5 cells/ml) onto PDL-pretreated 24-well plates (1 ml/well; Corning, N.Y., N.Y.), and grown in culture medium for microglia [RPMI-1640 medium (Sigma-Aldrich, Rehovot) supplemented with 10% FCS, L-glutamine (1 mM), sodium pyruvate (1 mM), β-mercaptoethanol ([…]), penicillin (100 U/ml), and streptomycin ([…])]. The cells were allowed to adhere to the surface of a PDL-coated culture flask (30 min, 37° C./5% CO2), and non-adherent cells were rinsed off.
Cover slips from co-cultures of NPCs and mouse microglia were washed with PBS, fixed as described above, treated with a permeabilization/blocking solution containing 10% FCS, 2% bovine serum albumin, 1% glycine, and 0.1% Triton X-100 (Sigma-Aldrich, Rehovot), and stained with a combination of mouse anti-[…] (anti-βIII-T) isoform C-terminus antibodies (1:500; Chemicon, Temecula, Calif.), rat anti-CD11b (MAC1; 1:50; BD—Pharmingen, Franklin Lakes, N.J.) and hamster anti-CD11c (1:100; eBioscience, San Diego, Calif.). To capture the microglia FITC- or Cy3-conjugated Bandeiraea simplicifolia isolectin B4 (IB-4; 1:50; Sigma-Aldrich, Rehovot) was used. To detect expression of human Aβ anti-Aβ (human amino-acid residues 1-17) (mouse, clone 6E10; Chemicon) was used.
On the basis of our previous findings, we suspected that the switch from a CD11b^+/CD11c^−/IGF-1^− to a CD11b^+/CD11c^+/IGF-I^+ microglial phenotype in the Cop-1 vaccinated Tg-AD mice might be attributable to IL-4. We examined this possibility in vitro. […] In contrast, the expression of CD11c induced by IL-4 was not transient. Quantification of the ability of IL-4 to induce CD11c expression even after the microglia were pretreated with Aβ is shown in FIG. 4D.
Thus, upregulation of CD11c on bone marrow derived myeloid cells by […] will allow the cells to reach injured sites and induce beneficial effect.

| Substance | effect of microglia activated by aggregated Aβ(1-40) on neurogenesis and NPC number ([1]; aggregated Aβ(1-40) 5 μM, 48 h pre-incubation, co-culture 10 days) | counteracting the negative effect of Aβ-activated microglia on NPC survival and differentiation ([1]; cytokine 10 ng/ml added for 48 h after 48 h aggregated Aβ(1-40) 5 μM) | numbers of GFP+/βIII-T+ cells in co-cultures of NPCs with activated microglia ([1]; microglia activated with 10 ng/ml, co-culture 10 days, vs microglia-free control) | time to peak of CD11c upregulation after activation [2] |
| --- | --- | --- | --- | --- |
| Aβ(1-40): β-amyloid peptide fragment 1-40, aggregated | blocked neurogenesis and decreased the number of NPCs | – | – | – |
| IFN-γ: recombinant mouse IFN-γ | – | failed to reverse their negative effect on neurogenesis | dramatic increase | 2 to 3 days |
